# From PMC5218480 (PLoS ONE, 2017)
# Tested on: MV-4-11 cells
# Assay: Gene expression microarray analysis (Affymetrix PrimeView) and GSEA
# Format: cell-based, human
# Design: RFU PODN (11730768_x_at) / Fold change /veh PODN (11730768_x_at) / RFU LINC00158 (11744669_a_at) / Fold change /veh LINC00158 (11744669_a_at) / RFU DUSP10 (11751237_a_at) / Fold change /veh DUSP10 (11751237_a_at) / RFU ID3 (11757404_x_at) / Fold change /veh ID3 (11757404_x_at) / RFU PLEKHG5 (11737974_s_at) / Fold change /veh PLEKHG5 (11737974_s_at) / RFU LRRC4B (11730491_at) / Fold change /veh LRRC4B (11730491_at) / RFU GIMAP4 (11747438_a_at) / Fold change /veh GIMAP4 (11747438_a_at) / RFU KRT8 (11758183_x_at) / Fold change /veh KRT8 (11758183_x_at) / RFU CNN1 (11734310_a_at) / Fold change /veh CNN1 (11734310_a_at) / RFU VPS37D (11726825_at) / Fold change /veh VPS37D (11726825_at) / RFU C10orf10 (11716522_x_at) / Fold change /veh C10orf10 (11716522_x_at) / RFU KIR2DL2 /// KIR2DL4 /// KIR2DL5A /// KIR2DL5B /// KIR2DS1 /// KIR2DS2 /// KIR2DS3 /// KIR2DS4 /// KIR3DL3 /// KIR3DL3 /// KIR3DS1 (11738374_at) / Fold change /veh KIR2DL2 /// KIR2DL4 /// KIR2DL5A /// KIR2DL5B /// KIR2DS1 /// KIR2DS2 /// KIR2DS3 /// KIR2DS4 /// KIR3DL3 /// KIR3DL3 /// KIR3DS1 (11738374_at) / RFU C1QL1 (11718748_at) / Fold change /veh C1QL1 (11718748_at) / RFU TMPRSS4 (11747572_a_at) / Fold change /veh TMPRSS4 (11747572_a_at) / RFU HAMP (11756126_x_at) / Fold change /veh HAMP (11756126_x_at) / RFU RNFT2 (11725882_a_at) / Fold change /veh RNFT2 (11725882_a_at) / RFU NR4A2 (11747474_a_at) / Fold change /veh NR4A2 (11747474_a_at) / RFU ABCC12 (11746883_a_at) / Fold change /veh ABCC12 (11746883_a_at) / RFU TMEM136 (11760407_x_at) / Fold change /veh TMEM136 (11760407_x_at) / RFU CLDN22 /// WWC2 (11732394_at) / Fold change /veh CLDN22 /// WWC2 (11732394_at) / RFU HLA-DPB1 (11760878_x_at) / Fold change /veh HLA-DPB1 (11760878_x_at) / RFU SPINT1 (11716480_a_at) / Fold change /veh SPINT1 (11716480_a_at) / RFU GAP43 (11754022_s_at) / Fold change /veh GAP43 (11754022_s_at) / RFU A4GNT (11735810_at) / Fold change /veh A4GNT (11735810_at) / RFU PRB3 (11715151_x_at) / Fold change /veh PRB3 (11715151_x_at) / RFU TUBB4B (11761932_at) / Fold change /veh TUBB4B (11761932_at) / RFU CAPN14 (11732068_a_at) / Fold change /veh CAPN14 (11732068_a_at) / RFU TMCC2 (11721928_a_at) / Fold change /veh TMCC2 (11721928_a_at) / RFU IRGQ (11745062_a_at) / Fold change /veh IRGQ (11745062_a_at) / RFU FAM174B (11720279_a_at) / Fold change /veh FAM174B (11720279_a_at) / RFU TMPRSS4 (11748680_a_at) / Fold change /veh TMPRSS4 (11748680_a_at) / RFU FAM212B (11763350_a_at) / Fold change /veh FAM212B (11763350_a_at) / RFU PLEKHG5 (11743358_a_at) / Fold change /veh PLEKHG5 (11743358_a_at) / RFU ZSCAN30 (11745921_a_at) / Fold change /veh ZSCAN30 (11745921_a_at) / RFU CMKLR1 (11741424_a_at) / Fold change /veh CMKLR1 (11741424_a_at) / RFU LOC101060620 /// MAPK8IP1 (11723275_at) / Fold change /veh LOC101060620 /// MAPK8IP1 (11723275_at) / RFU SPTSSB (11747773_x_at) / Fold change /veh SPTSSB (11747773_x_at) / RFU PRSS12 (11739890_at) / Fold change /veh PRSS12 (11739890_at) / RFU BIN1 (11741810_x_at) / Fold change /veh BIN1 (11741810_x_at) / RFU WNT11 (11732464_a_at) / Fold change /veh WNT11 (11732464_a_at) / RFU C10orf10 (11716521_a_at) / Fold change /veh C10orf10 (11716521_a_at) / RFU C5orf56 (11738089_at) / Fold change /veh C5orf56 (11738089_at) / RFU CYB561 (11721691_x_at) / Fold change /veh CYB561 (11721691_x_at) / RFU ANKRD19P (11752326_a_at) / Fold change /veh ANKRD19P (11752326_a_at) / RFU OR2T12 /// OR2T33 /// OR2T8 (11738714_s_at) / Fold change /veh OR2T12 /// OR2T33 /// OR2T8 (11738714_s_at) / RFU VCAN (11748164_a_at) / Fold change /veh VCAN (11748164_a_at) / RFU JSRP1 (11732532_at) / Fold change /veh JSRP1 (11732532_at) / RFU KRTAP10-11 (11738290_x_at) / Fold change /veh KRTAP10-11 (11738290_x_at) / RFU MYO3A (11730013_a_at) / Fold change /veh MYO3A (11730013_a_at) / RFU EBF3 (11725865_a_at) / Fold change /veh EBF3 (11725865_a_at) / RFU CAMK2N1 (11719241_x_at) / Fold change /veh CAMK2N1 (11719241_x_at) / RFU C5orf56 (11738088_a_at) / Fold change /veh C5orf56 (11738088_a_at) / RFU OLFML3 (11715873_a_at) / Fold change /veh OLFML3 (11715873_a_at) / RFU LOC100653217 /// NTM (11731650_a_at) / Fold change /veh LOC100653217 /// NTM (11731650_a_at) / RFU MAPK11 (11762145_a_at) / Fold change /veh MAPK11 (11762145_a_at) / RFU FIZ1 (11724087_x_at) / Fold change /veh FIZ1 (11724087_x_at) / RFU OASL (11726364_x_at) / Fold change /veh OASL (11726364_x_at) / RFU SOX15 (11748057_x_at) / Fold change /veh SOX15 (11748057_x_at) / RFU CD79A (11719716_a_at) / Fold change /veh CD79A (11719716_a_at) / RFU HIST1H1D (11736915_at) / Fold change /veh HIST1H1D (11736915_at) / RFU CASKIN2 (11723855_a_at) / Fold change /veh CASKIN2 (11723855_a_at) / RFU LOC730098 (11760151_x_at) / Fold change /veh LOC730098 (11760151_x_at) / RFU OR4N2 (11742367_at) / Fold change /veh OR4N2 (11742367_at) / RFU PRRT2 (11749266_a_at) / Fold change /veh PRRT2 (11749266_a_at) / RFU SNX32 (11753110_a_at) / Fold change /veh SNX32 (11753110_a_at) / RFU CDHR5 (11726645_a_at) / Fold change /veh CDHR5 (11726645_a_at) / RFU RCAN1 (11760418_a_at) / Fold change /veh RCAN1 (11760418_a_at) / RFU FAM167A (11723789_a_at) / Fold change /veh FAM167A (11723789_a_at) / RFU FAM26E (11764081_at) / Fold change /veh FAM26E (11764081_at) / RFU ISYNA1 (11749810_s_at) / Fold change /veh ISYNA1 (11749810_s_at) / RFU ACY1 (11761880_at) / Fold change /veh ACY1 (11761880_at) / RFU 11764098_at / Fold change /veh 11764098_at / RFU SAMD14 (11745864_x_at) / Fold change /veh SAMD14 (11745864_x_at) / RFU NPB (11741838_a_at) / Fold change /veh NPB (11741838_a_at) / RFU TMPRSS6 (11731388_a_at) / Fold change /veh TMPRSS6 (11731388_a_at) / RFU KRTAP10-2 (11738614_at) / Fold change /veh KRTAP10-2 (11738614_at) / RFU ARHGAP8 /// PRR5-ARHGAP8 (11727945_x_at) / Fold change /veh ARHGAP8 /// PRR5-ARHGAP8 (11727945_x_at) / RFU KRTAP5-7 /// NADSYN1 (11734609_at) / Fold change /veh KRTAP5-7 /// NADSYN1 (11734609_at) / RFU RASL12 (11751679_a_at) / Fold change /veh RASL12 (11751679_a_at) / RFU CDKN2B (11736163_a_at) / Fold change /veh CDKN2B (11736163_a_at) / RFU PRF1 (11729649_at) / Fold change /veh PRF1 (11729649_at) / RFU, ZNF638 /// ZNF638-IT1 / Fold change vs veh, ZNF638 /// ZNF638-IT1 / RFU, PANK3 / Fold change vs veh, PANK3 / RFU, SH3YL1 / Fold change vs veh, SH3YL1 / RFU, ZEB2 / Fold change vs veh, ZEB2 / RFU, NRIP1 / Fold change vs veh, NRIP1 / RFU, PTTG1IP / Fold change vs veh, PTTG1IP / RFU, CAPN2 / Fold change vs veh, CAPN2 / RFU, MED14 / Fold change vs veh, MED14 / RFU, SNORA58 / Fold change vs veh, SNORA58 / RFU, C1orf63 / Fold change vs veh, C1orf63 / RFU, LRRFIP1 / Fold change vs veh, LRRFIP1 / RFU, NDUFAF7 / Fold change vs veh, NDUFAF7 / RFU, SLC12A2 / Fold change vs veh, SLC12A2 / RFU, IBTK / Fold change vs veh, IBTK / RFU, ESF1 / Fold change vs veh, ESF1 / Fold change vs veh, TMEM50B / RFU, TAOK1 / Fold change vs veh, TAOK1 / RFU, ACBD3 / Fold change vs veh, ACBD3 / RFU, TMA16 / Fold change vs veh, TMA16 / RFU, RWDD3 / Fold change vs veh, RWDD3 / RFU, BCAT1 / Fold change vs veh, BCAT1 / RFU, EDEM3 / Fold change vs veh, EDEM3 / RFU, TMEM33 / Fold change vs veh, TMEM33 / RFU, WDR75 / Fold change vs veh, WDR75 / RFU, AHCTF1 / Fold change vs veh, AHCTF1 / RFU, TFRC / Fold change vs veh, TFRC / RFU, ZDHHC17 / Fold change vs veh, ZDHHC17 / RFU, NOM1 / Fold change vs veh, NOM1 / RFU, ARL8B / Fold change vs veh, ARL8B / RFU, ZBTB11 / Fold change vs veh, ZBTB11 / RFU, TAMM41 / Fold change vs veh, TAMM41 / RFU, KIAA1704 /// LOC100996395 / Fold change vs veh, KIAA1704 /// LOC100996395 / RFU, ING1 / Fold change vs veh, ING1 / RFU, TRMT61B / Fold change vs veh, TRMT61B / RFU, FUBP3 / Fold change vs veh, FUBP3 / RFU, TP53 / Fold change vs veh, TP53 / RFU, TNKS2 / Fold change vs veh, TNKS2 / RFU, ZFP14 / Fold change vs veh, ZFP14 / RFU, ACTR2 / Fold change vs veh, ACTR2 / RFU, PPP3R1 / Fold change vs veh, PPP3R1 / RFU, PIK3R1 / Fold change vs veh, PIK3R1 / RFU, HNRNPA1 / Fold change vs veh, HNRNPA1 / RFU, RNF170 / Fold change vs veh, RNF170 / RFU, ZNF28 / Fold change vs veh, ZNF28 / RFU, RNGTT / Fold change vs veh, RNGTT / RFU, OGT / Fold change vs veh, OGT / RFU, BRD1 / Fold change vs veh, BRD1 / RFU, MARS / Fold change vs veh, MARS / RFU, ZNF655 / Fold change vs veh, ZNF655 / RFU, FAHD1 / Fold change vs veh, FAHD1 / RFU, BDP1 / Fold change vs veh, BDP1 / RFU, LRRCC1 / Fold change vs veh, LRRCC1 / RFU, ARID1A / Fold change vs veh, ARID1A / RFU, ZNF146 / Fold change vs veh, ZNF146 / RFU, ZNF330 / Fold change vs veh, ZNF330 / RFU, GPN3 / Fold change vs veh, GPN3 / RFU, C9orf123 / Fold change vs veh, C9orf123 / RFU, N4BP2L2 / Fold change vs veh, N4BP2L2 / RFU, ARFIP1 / Fold change vs veh, ARFIP1 / RFU, FAM179B / Fold change vs veh, FAM179B / RFU, BCL10 / Fold change vs veh, BCL10 / RFU, UHRF1BP1L / Fold change vs veh, UHRF1BP1L / RFU, BET1 / Fold change vs veh, BET1 / RFU, CNOT2 / Fold change vs veh, CNOT2 / RFU, ZNF268 / Fold change vs veh, ZNF268 / Fold change vs veh, ZNF507 / RFU, DGCR2 / Fold change vs veh, DGCR2 / RFU, WDSUB1 / Fold change vs veh, WDSUB1 / Fold change vs veh, HSP90B1 /// MIR3652 / RFU, ADSS / Fold change vs veh, ADSS / RFU, GK / Fold change vs veh, GK / RFU, ZNF148 / Fold change vs veh, ZNF148 / RFU, TAF9 / Fold change vs veh, TAF9 / RFU, SLC1A5 / Fold change vs veh, SLC1A5 / RFU, SLMO2 / Fold change vs veh, SLMO2 / RFU, ABCC4 / Fold change vs veh, ABCC4 / RFU, LOC101060439 /// RAP1B / Fold change vs veh, LOC101060439 /// RAP1B / RFU, RFX7 / Fold change vs veh, RFX7 / RFU, GTPBP10 / Fold change vs veh, GTPBP10 / RFU, CNEP1R1 / Fold change vs veh, CNEP1R1 / RFU, BIVM-ERCC5 /// ERCC5 / Fold change vs veh, BIVM-ERCC5 /// ERCC5 / RFU, ILF3 / Fold change vs veh, ILF3 / RFU 11762660_at / Fold change /veh 11762660_at / RFU VCAN (11757783_s_at) / Fold change /veh VCAN (11757783_s_at) / RFU DDX43 (11728927_at) / Fold change /veh DDX43 (11728927_at) / RFU KRT8 (11758188_x_at) / Fold change /veh KRT8 (11758188_x_at) / RFU NKD1 (11759106_at) / Fold change /veh NKD1 (11759106_at) / RFU SRD5A1 (11742802_a_at) / Fold change /veh SRD5A1 (11742802_a_at) / RFU TPSAB1 /// TPSB2 (11721975_s_at) / Fold change /veh TPSAB1 /// TPSB2 (11721975_s_at) / RFU GSTM3 (11746129_a_at) / Fold change /veh GSTM3 (11746129_a_at) / RFU IL23R (11737362_x_at) / Fold change /veh IL23R (11737362_x_at) / RFU TMEM51 (11727254_a_at) / Fold change /veh TMEM51 (11727254_a_at) / RFU PIWIL2 (11732686_x_at) / Fold change /veh PIWIL2 (11732686_x_at) / RFU ORM1 (11744905_x_at) / Fold change /veh ORM1 (11744905_x_at) / RFU CCDC152 (11743942_at) / Fold change /veh CCDC152 (11743942_at) / RFU ECM1 (11717891_a_at) / Fold change /veh ECM1 (11717891_a_at) / RFU IL23R (11748794_a_at) / Fold change /veh IL23R (11748794_a_at) / RFU TNFAIP8L3 (11732012_x_at) / Fold change /veh TNFAIP8L3 (11732012_x_at) / RFU MBOAT4 (11741988_at) / Fold change /veh MBOAT4 (11741988_at) / RFU 11764193_at / Fold change /veh 11764193_at / RFU TMEM53 (11763286_at) / Fold change /veh TMEM53 (11763286_at) / RFU MAGEB2 (11727129_at) / Fold change /veh MAGEB2 (11727129_at) / RFU TMEM200A (11744735_a_at) / Fold change /veh TMEM200A (11744735_a_at) / RFU CCDC152 (11751479_a_at) / Fold change /veh CCDC152 (11751479_a_at) / RFU FAM211A (11726209_a_at) / Fold change /veh FAM211A (11726209_a_at) / RFU RGS16 (11746705_a_at) / Fold change /veh RGS16 (11746705_a_at) / RFU VCAN (11755009_s_at) / Fold change /veh VCAN (11755009_s_at) / RFU RHOB (11743442_s_at) / Fold change /veh RHOB (11743442_s_at) / RFU RGS16 (11720943_a_at) / Fold change /veh RGS16 (11720943_a_at) / RFU RGS16 (11720944_at) / Fold change /veh RGS16 (11720944_at) / RFU, VPS4B / Fold change vs veh, VPS4B / RFU, CREB1 / Fold change vs veh, CREB1 / RFU, DNAJC13 / Fold change vs veh, DNAJC13 / RFU, GNAQ / Fold change vs veh, GNAQ / RFU, CDK5R1 / Fold change vs veh, CDK5R1 / RFU, ZRANB3 / Fold change vs veh, ZRANB3 / RFU, CUL4A / Fold change vs veh, CUL4A / RFU, CCNY / Fold change vs veh, CCNY / RFU, UFL1 / Fold change vs veh, UFL1 / RFU, COG3 / Fold change vs veh, COG3 / RFU, DIAPH2 / Fold change vs veh, DIAPH2 / RFU, SKA2 / Fold change vs veh, SKA2 / RFU, AFF3 / Fold change vs veh, AFF3 / RFU, LMF1 / Fold change vs veh, LMF1 / RFU, IPO11 / Fold change vs veh, IPO11 / RFU, DFFB / Fold change vs veh, DFFB / RFU, FOXP1 / Fold change vs veh, FOXP1 / RFU, CARD8 / Fold change vs veh, CARD8 / RFU, STRN3 / Fold change vs veh, STRN3 / RFU, ADK / Fold change vs veh, ADK / RFU, RASSF2 / Fold change vs veh, RASSF2 / RFU, WIPF1 / Fold change vs veh, WIPF1 / RFU, LARP1B / Fold change vs veh, LARP1B / RFU, RASA1 / Fold change vs veh, RASA1 / RFU, RB1 / Fold change vs veh, RB1 / RFU, PPFIA1 / Fold change vs veh, PPFIA1 / RFU, MAT2A / Fold change vs veh, MAT2A / RFU, CCT5 / Fold change vs veh, CCT5 / RFU, WDR92 / Fold change vs veh, WDR92 / RFU, CUX1 / Fold change vs veh, CUX1 / RFU, TTC7A / Fold change vs veh, TTC7A / RFU, TMEM135 / Fold change vs veh, TMEM135 / RFU, DEPTOR / Fold change vs veh, DEPTOR / RFU, CPM / Fold change vs veh, CPM / RFU, DNAJB6 / Fold change vs veh, DNAJB6 / RFU, CACNA2D3 / Fold change vs veh, CACNA2D3 / RFU, DTX4 / Fold change vs veh, DTX4 / RFU, TFCP2 / Fold change vs veh, TFCP2 / RFU, GMCL1 /// GMCL1P1 / Fold change vs veh, GMCL1 /// GMCL1P1 / RFU, AEBP2 / Fold change vs veh, AEBP2 / RFU, SNHG1 /// SNORD22 /// SNORD25 /// SNORD26 /// SNORD27 /// SNORD28 /// SNORD29 /// SNORD31 / Fold change vs veh, SNHG1 /// SNORD22 /// SNORD25 /// SNORD26 /// SNORD27 /// SNORD28 /// SNORD29 /// SNORD31 / Fold change (Aza/veh), C12orf56 (ProbeSet 11735607_a_at) / Fold change (ACY-1035/veh), C12orf56 (ProbeSet 11735607_a_at) / Fold change (Aza/veh), FGFR1OP (ProbeSet 11751329_s_at) / Fold change (ACY-1035/veh), FGFR1OP (ProbeSet 11751329_s_at) / Fold change (Aza/veh), VPS36 (ProbeSet 11739960_a_at) / Fold change (ACY-1035/veh), VPS36 (ProbeSet 11739960_a_at) / RFU SYPL1 (11715823_x_at) / Fold change /veh SYPL1 (11715823_x_at) / RFU IGFBP7 (11715501_s_at) / Fold change /veh IGFBP7 (11715501_s_at) / RFU REEP3 (11722064_at) / Fold change /veh REEP3 (11722064_at) / RFU IGLL1 (11728026_x_at) / Fold change /veh IGLL1 (11728026_x_at): dose or concentration left out as unconfirmed
# Conditions: ProbeSet 11716891_at; LIST B
smiles,measurement,value
Nc1ccc(-c2cccs2)cc1NC(=O)c1ccc2c(c1)cc(C1CC1)n2CCN1CCOCC1 [ACY-1035],"Fold change vs veh, C9orf123",1.03
